The values below are quoted from earlier work in patent publication US20030114534A1, “Pharmaceutical preparation for apthous ulcers” (priority 2001, published 2003).

The structures appear in SMILES notation.

The test system of this data set is apthous lesions. Conditions: applied locally, 250 mg. in 10 ml. of water, three times a day.

Take `CN(C)[C@@H]1C(O)=C(C(N)=O)C(=O)[C@@]2(O)C(O)=C3C(=O)c4c(O)ccc(Cl)c4[C@@](C)(O)[C@H]3C[C@@H]12` [Aureomycin]: the analgesic effect lasting result is reported as “one-half to two”.
